Calls of active or inactive are those of the source. No cut-off for these calls is given here.
Columns and labels:
SUM149PT [1] = assay: Induction of apoptosis in human SUM149PT cells assessed as necrotic cells at 2 uM incubated for 48 hrs by Annexin V-FITC/PI staining based flow cytometry (reference value: 0.51 %); assay type: functional
CAPAN-1 = assay: Antiproliferative activity against human CAPAN-1 cells assessed as inhibition of cell growth incubated for 48 hrs by MTT assay; assay type: functional, cell-based; settings: CAPAN-1, 48 h
SUM149PT [2] = assay: Induction of apoptosis in human SUM149PT cells assessed as viable cells at 0.5 uM incubated for 24 hrs by Annexin V-FITC/PI staining based flow cytometry (reference value: 93.7 %); assay type: functional; settings: read-out: Activity
SUM149PT [3] = assay: Induction of ROS in human SUM149PT cells assessed as increase in fluorescence intensity incubated for 48 hrs by DCFH-DA staining based confocal laser scanning microscopic analysis; assay type: functional, cell-based
SUM149PT [4] = assay: Induction of cell cycle arrest in human SUM149PT cells assessed as accumulation of cells at G0/G1 phase at 0.1 uM incubated for 48 hrs by propidium iodide/RNase A staining based flow cytometry (reference value: 69.2 %); assay type: functional
SUM149PT [5] = assay: Induction of apoptosis in human SUM149PT cells assessed as necrotic cells at 0.1 uM incubated for 24 hrs by Annexin V-FITC/PI staining based flow cytometry (reference value: 1.27 %); assay type: functional
SUM149PT [6] = assay: Induction of cell cycle arrest in human SUM149PT cells assessed as accumulation of cells at G2/M phase at 0.5 uM incubated for 48 hrs by propidium iodide/RNase A staining based flow cytometry (reference value: […] %); assay type: functional
SUM149PT [7] = assay: Induction of cell cycle arrest in human SUM149PT cells assessed as accumulation of cells at S phase at 0.5 uM incubated for 48 hrs by propidium iodide/RNase A staining based flow cytometry (reference value: 18.7 %); assay type: functional
Mitochondrial membrane = assay: Induction of mitochondrial membrane potential loss in human SUM149PT cells incubated for 48 hrs by JC-1 staining based confocal laser scanning microscopic analysis
SUM149PT [8] = assay: Induction of apoptosis in human SUM149PT cells assessed as late apoptotic cells at 2 uM incubated for 24 hrs by Annexin V-FITC/PI staining based flow cytometry (reference value: 2.45 %); assay type: functional
SUM149PT [9] = assay: Induction of DNA double strand breaks in human SUM149PT cells assessed as increase in gamma-H2AX level incubated for 48 hrs by Western blotting analysis; assay type: functional, cell-based
SUM149PT [10] = assay: Induction of cell cycle arrest in human SUM149PT cells assessed as accumulation of cells at G2/M phase at 0.5 uM incubated for 24 hrs by propidium iodide/RNase A staining based flow cytometry (reference value: 5.54 %); assay type: functional
SUM149PT [11] = assay: Induction of apoptosis in human SUM149PT cells assessed as early apoptotic cells at 0.1 uM incubated for 48 hrs by Annexin V-FITC/PI staining based flow cytometry (reference value: 2.28 %); assay type: functional
SUM149PT [12] = assay: Induction of apoptosis in human SUM149PT cells assessed as late apoptotic cells at 0.1 uM incubated for 24 hrs by Annexin V-FITC/PI staining based flow cytometry (reference value: 2.45 %); assay type: functional
SUM149PT [13] = assay: Induction of DNA double strand breaks in human SUM149PT cells assessed as increase in gamma-H2AX level in nucleus incubated for 48 hrs by immunofluorescence analysis; assay type: functional, cell-based
SUM149PT [14] = assay: Induction of apoptosis in human SUM149PT cells assessed as upregulation of caspase-3 expression incubated for 48 hrs by Western blotting analysis; assay type: functional, cell-based
[15] = target: Poly [ADP-ribose] polymerase 1 (Homo sapiens, UniProt P09874); assay: Inhibition of PARP-1 in human SUM149PT cells incubated for 48 hrs by HRP-ELISA; assay type: cell-based
Poly [ADP-ribose] polymerase 1, sequence (P09874 whole entry): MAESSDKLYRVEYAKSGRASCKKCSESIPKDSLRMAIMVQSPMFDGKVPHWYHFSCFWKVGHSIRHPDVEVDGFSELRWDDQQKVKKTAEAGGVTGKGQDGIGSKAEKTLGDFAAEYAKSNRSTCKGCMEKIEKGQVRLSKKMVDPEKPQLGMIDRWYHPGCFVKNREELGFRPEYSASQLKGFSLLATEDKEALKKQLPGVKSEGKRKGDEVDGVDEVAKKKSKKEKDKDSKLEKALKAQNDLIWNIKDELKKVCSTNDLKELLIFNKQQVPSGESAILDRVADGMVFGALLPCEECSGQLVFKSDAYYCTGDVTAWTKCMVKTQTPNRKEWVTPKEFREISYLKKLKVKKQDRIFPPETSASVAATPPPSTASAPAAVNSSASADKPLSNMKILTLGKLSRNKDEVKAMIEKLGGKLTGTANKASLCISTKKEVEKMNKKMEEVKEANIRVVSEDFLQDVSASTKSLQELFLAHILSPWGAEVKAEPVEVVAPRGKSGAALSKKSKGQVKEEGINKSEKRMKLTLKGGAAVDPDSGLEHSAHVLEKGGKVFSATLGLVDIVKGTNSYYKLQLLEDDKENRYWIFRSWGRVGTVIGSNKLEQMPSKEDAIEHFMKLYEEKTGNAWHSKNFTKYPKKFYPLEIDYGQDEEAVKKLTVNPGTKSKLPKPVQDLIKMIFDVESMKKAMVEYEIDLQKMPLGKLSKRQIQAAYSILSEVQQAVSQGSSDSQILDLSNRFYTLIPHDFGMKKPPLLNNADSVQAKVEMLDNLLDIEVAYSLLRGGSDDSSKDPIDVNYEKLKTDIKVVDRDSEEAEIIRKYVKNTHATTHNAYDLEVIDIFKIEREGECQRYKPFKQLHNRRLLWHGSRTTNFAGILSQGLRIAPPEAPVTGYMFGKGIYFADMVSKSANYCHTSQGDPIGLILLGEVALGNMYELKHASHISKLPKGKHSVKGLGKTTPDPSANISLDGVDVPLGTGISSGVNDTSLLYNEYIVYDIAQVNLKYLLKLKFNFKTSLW

SUM149PT [16] = assay: Induction of apoptosis in human SUM149PT cells assessed as late apoptotic cells at 0.5 uM incubated for 48 hrs by Annexin V-FITC/PI staining based flow cytometry (reference value: 1.13 %); assay type: functional
SUM149PT [17] = assay: Induction of apoptosis in human SUM149PT cells assessed as early apoptotic cells at 2 uM incubated for 24 hrs by Annexin V-FITC/PI staining based flow cytometry (reference value: 2.59 %); assay type: functional
[18] = target: Poly [ADP-ribose] polymerase 2 (Homo sapiens, UniProt Q9UGN5); assay: Inhibition of PARP-2 in human SUM149PT cells incubated for 48 hrs by HRP-ELISA; assay type: cell-based
Poly [ADP-ribose] polymerase 2, sequence (Q9UGN5 whole entry): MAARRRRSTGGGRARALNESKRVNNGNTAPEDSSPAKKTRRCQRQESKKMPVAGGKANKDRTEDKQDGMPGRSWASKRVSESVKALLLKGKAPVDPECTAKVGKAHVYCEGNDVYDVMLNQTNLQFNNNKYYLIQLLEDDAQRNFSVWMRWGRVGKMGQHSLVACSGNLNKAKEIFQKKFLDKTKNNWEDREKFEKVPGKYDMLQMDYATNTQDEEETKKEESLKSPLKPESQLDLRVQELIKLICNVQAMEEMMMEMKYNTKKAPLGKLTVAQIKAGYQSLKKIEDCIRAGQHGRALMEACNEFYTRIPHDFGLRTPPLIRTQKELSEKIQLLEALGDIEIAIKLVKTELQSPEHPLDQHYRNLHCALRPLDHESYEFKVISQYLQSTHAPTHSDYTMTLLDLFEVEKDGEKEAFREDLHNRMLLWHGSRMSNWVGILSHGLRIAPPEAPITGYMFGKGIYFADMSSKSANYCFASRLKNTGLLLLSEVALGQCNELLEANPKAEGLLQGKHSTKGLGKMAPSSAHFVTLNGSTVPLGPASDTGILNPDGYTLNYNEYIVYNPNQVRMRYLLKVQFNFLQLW

SUM149PT [19] = assay: Induction of cell cycle arrest in human SUM149PT cells assessed as accumulation of cells at S phase at 0.1 uM incubated for 48 hrs by propidium iodide/RNase A staining based flow cytometry (reference value: 18.7 %); assay type: functional
SUM149PT [20] = assay: Induction of cell cycle arrest in human SUM149PT cells assessed as accumulation of cells at G0/G1 phase at 2 uM incubated for 48 hrs by propidium iodide/RNase A staining based flow cytometry (reference value: 69.2 %); assay type: functional
SUM149PT [21] = assay: Induction of apoptosis in human SUM149PT cells assessed as necrotic cells at 0.5 uM incubated for 24 hrs by Annexin V-FITC/PI staining based flow cytometry (reference value: 1.27 %); assay type: functional
SUM149PT [22] = assay: Induction of apoptosis in human SUM149PT cells assessed as viable cells at 0.1 uM incubated for 48 hrs by Annexin V-FITC/PI staining based flow cytometry (reference value: 96.1 %); assay type: functional; settings: read-out: Activity
HCC1937 [23] = assay: Antiproliferative activity against human HCC1937 cells assessed as inhibition of cell growth at 20 uM incubated for 48 hrs by MTT assay relative to control; assay type: functional
SUM149PT [24] = assay: Induction of ROS in human SUM149PT cells assessed as increase in fluorescence intensity at 2 uM incubated for 48 hrs by DCFH-DA staining based confocal laser scanning microscopic analysis relative to niraparib; assay type: functional, cell-based
SUM149PT [25] = assay: Induction of apoptosis in human SUM149PT cells assessed as upregulation of BAX expression incubated for 48 hrs by Western blotting analysis; assay type: functional, cell-based
SUM149PT [26] = assay: Induction of cell cycle arrest in human SUM149PT cells assessed as accumulation of cells at S phase at 0.1 uM incubated for 24 hrs by propidium iodide/RNase A staining based flow cytometry (reference value: 16.4 %); assay type: functional
SUM149PT [27] = assay: Induction of cell cycle arrest in human SUM149PT cells assessed as accumulation of cells at G0/G1 phase at 0.5 uM incubated for 48 hrs by propidium iodide/RNase A staining based flow cytometry (reference value: 69.2 %); assay type: functional
SUM149PT [28] = assay: Induction of cell cycle arrest in human SUM149PT cells assessed as accumulation of cells at G0/G1 phase at 2 uM incubated for 24 hrs by propidium iodide/RNase A staining based flow cytometry (reference value: 72.8 %); assay type: functional
SUM149PT [29] = assay: Induction of apoptosis in human SUM149PT cells assessed as viable cells at 0.5 uM incubated for 48 hrs by Annexin V-FITC/PI staining based flow cytometry (reference value: 96.1 %); assay type: functional; settings: read-out: Activity
HCC1937 [30] = assay: Antiproliferative activity against human HCC1937 cells assessed as inhibition of cell growth incubated for 48 hrs by MTT assay; assay type: functional, cell-based; settings: HCC1937, 48 h
SUM149PT [31] = assay: Antiproliferative activity against human SUM149PT cells assessed as inhibition of cell growth at 5 uM incubated for 48 hrs by MTT assay relative to control; assay type: functional

Structure (SMILES): COc1cccc(-c2cc3cc(F)cc(C(N)=O)c3oc2=O)c1
- Activity (SUM149PT [1]): 2.61%
- IC50 (CAPAN-1): 4260 nM
- viability at 0.5 µM (SUM149PT [2]): 86.6%
- Activity (SUM149PT [3]): Dose-dependent-effect
- Activity (SUM149PT [4]): 25.9%
- Activity (SUM149PT [5]): 1.86%
- Activity (SUM149PT [6]): 36.7%
- Activity (SUM149PT [7]): 25.3%
- Activity (Mitochondrial membrane): Dose-dependent-effect
- Activity (SUM149PT [8]): 6.87%
- Activity (SUM149PT [9]): Dose-dependent-effect
- Activity (SUM149PT [10]): 22.3%
- Activity (SUM149PT [11]): 5.45%
- Activity (SUM149PT [12]): 2.69%
- Activity (SUM149PT [13]): Dose-dependent-effect
- Activity (SUM149PT [14]): Dose-dependent-effect
- IC50 [15]: 2.53 nM
- Activity (SUM149PT [16]): 13.5%
- Activity (SUM149PT [17]): 9.8%
- IC50 [18]: 6.45 nM
- Activity (SUM149PT [19]): 45.4%
- Activity (SUM149PT [20]): 16.9%
- Activity (SUM149PT [21]): 2.31%
- viability at 0.1 µM (SUM149PT [22]): 87.3%
- inhibition at 20 µM (HCC1937 [23]): > 60%
- Activity (SUM149PT [24]): Active
- Activity (SUM149PT [25]): Dose-dependent-effect
- Activity (SUM149PT [26]): 33.2%
- Activity (SUM149PT [27]): 38.3%
- Activity (SUM149PT [28]): 39.9%
- viability at 0.5 µM (SUM149PT [29]): 61.3%
- IC50 (HCC1937 [30]): 1910 nM
- inhibition at 5 µM (SUM149PT [31]): > 70%

— ChEMBL document CHEMBL6074623, “Carbamoylation at C-8 position of natural 3-arylcoumarin scaffold for the discovery of novel PARP-1 inhibitors with potent anticancer activity” (Eur J Med Chem, 2024)
